In PMC4503722, “Novel Phenotypic Outcomes Identified for a Public Collection of Approved Drugs from a Publicly Accessible Panel of Assays” (PLoS ONE, 2015):
pIC50: −log10 of the molar value. Where two headings read alike, the source gives them in different places.

Key:
SW480 = experiment: cells; type: cell-based; settings: for pIC50: read-out: Basal_Viability ATP SW480 summarized IC50
DLD-1 = experiment: cells; type: cell-based; settings: for pIC50: read-out: Basal_Viability ATP DLD-1 summarized IC50
[1] = tested on: HCT116 cells treated with a GSK3β inhibitor; experiment: cells; type: cell-based; settings: for pIC50: read-out: GSK3b inh pretreated_Viability ATP HCT116 summarized IC50
[2] = tested on: endothelial tube formation in co-cultures of ECFCs and ADSCs treated with VEGF; experiment: cells; type: cell-based, human
SNU-C1 = experiment: cells; type: cell-based; settings: for Basal_Viability ATP SNU-C1 IC50/EC50: assay number 30
HCT116 = experiment: cells; type: cell-based; settings: for pIC50: read-out: Basal_Viability ATP HCT116 summarized IC50
[3] = tested on: ECFC/ADSC co-culture cell nuclei number
RKO = experiment: cells; type: cell-based; settings: for pIC50: read-out: Basal_Viability ATP RKO summarized IC50
Colo320 = experiment: cells; type: cell-based; settings: for pIC50: read-out: Basal_Viability ATP Colo 320 summarized IC50
HT-29 = experiment: cells; type: cell-based; settings: for Basal_Viability ATP HT-29 IC50/EC50 / pIC50: assay number 28; for pIC50: read-out: Basal_Viability ATP HT-29 summarized IC50
[4] = assay number 26, GSK3b inhibitor pretreated

Oc1ccc(Cl)cc1Sc1cc(Cl)ccc1O [NCGC00013679-06]
pIC50 (SW480): 6.24 | pIC50 (DLD-1): 6.52 | pIC50 [1]: 6.83 | pIC50 ([2]; read-out: VEGF_ADSC\ECFC Angio CD31 TubeArea summarized IC50): 5.45 | pIC50 (SNU-C1; read-out: Basal_Viability ATP SNU-C1 summarized IC50): 5.73 | pIC50 (HCT116): 6.74 | pIC50 ([3]; read-out: VEGF_ADSC\ECFC Angio Hoechst NucArea summarized IC50): 5.06 | pIC50 (RKO): 6.93 | pIC50 (Colo320): 7.12

CC(C(=O)O)c1cccc(C(=O)c2ccccc2)c1 (centres unmarked) [NCGC00015578-12]
Basal_Viability ATP SW480 IC50/EC50 (SW480; assay number 24, basal): 10.2684 µM | Basal_Viability ATP DLD-1 IC50/EC50 (DLD-1; assay number 23, basal): 8.6441 µM | Basal_Viability ATP SNU-C1 IC50/EC50 (SNU-C1; basal): 3.7959 µM | Basal_Viability ATP HT-29 IC50/EC50 (HT-29; basal): 14.387 µM | Basal_Viability ATP HCT116 IC50/EC50 (HCT116; assay number 25, basal): 10.487 µM

CC(C)(C)NCC(O)c1cc(O)cc(O)c1.CC(C)(C)NCC(O)c1cc(O)cc(O)c1.O=S(=O)(O)O (centres unmarked) [NCGC00016010-09]
Basal_Viability ATP SW480 IC50/EC50 (SW480; assay number 24): > 20 µM | Basal_Viability ATP DLD-1 IC50/EC50 (DLD-1; assay number 23): > 20 µM | Basal_Viability ATP HT-29 IC50/EC50 (HT-29): > 20 µM | Basal_Viability ATP HCT116 IC50/EC50 (HCT116; assay number 25, basal): > 20 µM | Basal_Viability ATP RKO IC50/EC50 (RKO; assay number 29): > 20 µM | Basal_Viability ATP Colo 320 IC50/EC50 (Colo320; assay number 27): > 20 µM

COc1ccc(C(=O)c2ccccc2O)c(O)c1 [NCGC00016393-07]
pIC50 (SW480; assay number 24, basal): < 4.70 | pIC50 (DLD-1; assay number 23, basal): < 4.70 | pIC50 (HT-29; basal): < 4.70 | pIC50 (HCT116; assay number 25, basal): < 4.70 | pIC50 (RKO; assay number 29, basal): < 4.70 | pIC50 (Colo320; assay number 27, basal): < 4.70

Oc1ccc(Cl)cc1Cc1ccccc1 [NCGC00091532-06]
pIC50 (SW480; assay number 24, basal): < 4.70 | pIC50 [1, 4]: < 5.18 | pIC50 (HT-29; basal): < 4.70 | pIC50 (HCT116; assay number 25, basal): < 4.70 | pIC50 (RKO; assay number 29, basal): < 4.70 | pIC50 (Colo320; assay number 27, basal): 4.89

C[S+](CC[C@H](N)C(=O)O)C[C@H]1O[C@@H](n2cnc3c(N)ncnc32)[C@H](O)[C@@H]1O (some centres unmarked) [NCGC00167546-03]
Basal_Viability ATP SW480 IC50/EC50 (SW480; assay number 24, basal): > 20 µM | Basal_Viability ATP DLD-1 IC50/EC50 (DLD-1; assay number 23, basal): > 20 µM | GSK3b inh pretreated_Viability ATP HCT116 IC50/EC50 [1, 4]: > 20 µM | VEGF_ADSC\ECFC Angio CD31 TubeArea IC50/EC50 [2]: > 10 µM | Basal_Viability ATP SNU-C1 IC50/EC50 (SNU-C1; basal): > 20 µM | Basal_Viability ATP HCT116 IC50/EC50 (HCT116; assay number 25, basal): > 20 µM | VEGF_ADSC\ECFC Angio Hoechst NucArea IC50/EC50 [3]: > 10 µM | Basal_Viability ATP RKO IC50/EC50 (RKO; assay number 29, basal): > 20 µM | Basal_Viability ATP Colo 320 IC50/EC50 (Colo320; assay number 27, basal): > 20 µM

Clc1ccc(C(Cn2ccnc2)OCc2ccc(Sc3ccccc3)cc2)c(Cl)c1 (centres unmarked) [NCGC00253713-01]
Basal_Viability ATP SW480 IC50/EC50 (SW480; assay number 24): 7.4367 µM | Basal_Viability ATP DLD-1 IC50/EC50 (DLD-1; assay number 23): 7.7564 µM | GSK3b inh pretreated_Viability ATP HCT116 IC50/EC50 [1, 4]: 6.7686 µM | VEGF_ADSC\ECFC Angio CD31 TubeArea IC50/EC50 [2]: > 10 µM | Basal_Viability ATP HT-29 IC50/EC50 (HT-29): > 20 µM | Basal_Viability ATP HCT116 IC50/EC50 (HCT116; assay number 25, basal): 7.7123 µM | VEGF_ADSC\ECFC Angio Hoechst NucArea IC50/EC50 [3]: > 10 µM | Basal_Viability ATP RKO IC50/EC50 (RKO; assay number 29): 6.141 µM | Basal_Viability ATP Colo 320 IC50/EC50 (Colo320; assay number 27): 7.0587 µM

CN1Cc2cc(C(=O)N3CCC(C4CCNCC4)CC3)ccc2N[C@@H](CC(=O)O)C1=O [NCGC00319023-01]
Basal_Viability ATP SW480 IC50/EC50 (SW480; assay number 24, concentration response): > 20 µM | Basal_Viability ATP DLD-1 IC50/EC50 (DLD-1; assay number 23, concentration response): > 20 µM | GSK3b inh pretreated_Viability ATP HCT116 IC50/EC50 ([1]; assay number 26, GSK3b inhibitor pretreated, concentration response): > 20 µM | VEGF_ADSC\ECFC Angio CD31 TubeArea IC50/EC50 [2]: > 10 µM | Basal_Viability ATP SNU-C1 IC50/EC50 (SNU-C1; concentration response): > 20 µM | Basal_Viability ATP HCT116 IC50/EC50 (HCT116; assay number 25, basal, concentration response): > 20 µM | VEGF_ADSC\ECFC Angio Hoechst NucArea IC50/EC50 [3]: > 10 µM | Basal_Viability ATP RKO IC50/EC50 (RKO; assay number 29, concentration response): > 20 µM | Basal_Viability ATP Colo 320 IC50/EC50 (Colo320; assay number 27, concentration response): > 20 µM

Cc1cc(-c2ccc(N=Nc3c(S(=O)(=O)O)cc4cc(S(=O)(=O)O)cc(N)c4c3O)c(C)c2)ccc1N=Nc1c(S(=O)(=O)O)cc2cc(S(=O)(=O)O)cc(N)c2c1O [NCGC00344528-01]
IC50/EC50, Basal_Viability ATP SW480 (assay number 24) (SW480; basal): > 20 µM | IC50/EC50, Basal_Viability ATP DLD-1 (assay number 23) (DLD-1; basal): > 20 µM | IC50/EC50, GSK3b inh pretreated_Viability ATP HCT116 (assay number 26) ([1]; GSK3b inh pretreated): > 20 µM | IC50/EC50, VEGF_ADSC\ECFC Angio CD31 TubeArea (assay number 2) [2]: > 10 µM | IC50/EC50, Basal_Viability ATP HT-29 (assay number 28) (HT-29; basal): > 20 µM | IC50/EC50, Basal_Viability ATP HCT116 (assay number 25) (HCT116; basal): > 20 µM | IC50/EC50, VEGF_ADSC\ECFC Angio Hoechst NucArea (assay number 3) [3]: > 10 µM | IC50/EC50, Basal_Viability ATP RKO (assay number 29) (RKO; basal): > 20 µM | IC50/EC50, Basal_Viability ATP Colo 320 (assay number 27) (Colo320; basal): > 20 µM
